Source: publication PMC6256357 (Chemical Science, 2018)

Molecular target: sirtuin 2 (SIRT2) (Homo sapiens, UniProt Q8IXJ6)
Test: trypsin-coupled fluorescence-based deacetylase assay
Type: biochemical

Sequence of sirtuin 2 (SIRT2) (Q8IXJ6 2-389): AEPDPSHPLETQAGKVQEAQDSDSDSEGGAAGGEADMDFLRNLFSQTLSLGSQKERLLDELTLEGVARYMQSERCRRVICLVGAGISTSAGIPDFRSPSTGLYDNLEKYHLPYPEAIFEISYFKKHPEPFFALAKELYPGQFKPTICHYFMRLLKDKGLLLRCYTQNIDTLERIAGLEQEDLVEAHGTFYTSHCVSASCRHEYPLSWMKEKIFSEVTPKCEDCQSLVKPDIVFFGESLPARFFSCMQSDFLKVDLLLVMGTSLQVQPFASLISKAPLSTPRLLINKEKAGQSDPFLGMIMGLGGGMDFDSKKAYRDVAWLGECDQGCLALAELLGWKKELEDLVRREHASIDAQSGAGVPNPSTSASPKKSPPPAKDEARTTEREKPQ

SMILES: NC(=O)c1ccc[n+]([C@@H]2O[C@H](COP(=O)([O-])OP(=O)(O)OC[C@H]3O[C@@H](n4cnc5c(N)ncnc54)[C@H](O)[C@@H]3O)[C@@H](O)[C@H]2O)c1 [NAD^+]
- trypsin-coupled fluorescence-based deacetylase assay: in contrast to NAD^+ that could participate in SIRT2-catalyzed protein deacetylation
